Experiments:
[1] = tested on: licking of the formalin injected paw (Phase 2, 20-30 min); assay: Formalin paw test, co-administration in constant dose ratio with isobolographic analysis (experiment 2); settings: for Theoretical ID50 (μg/kg) for 2nd phase of licking (95% confidence limits): component dose at theoretical additive point; for Theoretical ID50 (μg/kg) for 2nd phase of licking (95% confidence limits) / Experimental ID50 (μg/kg) for 2nd phase of licking (95% confidence limits): i.v.; for Experimental ID50 (μg/kg) for 2nd phase of licking (95% confidence limits): component dose, constant dose ratio; for Effect on amount of morphine or Org 41793 required to elicit antinociception: second phase of licking
Description: In mice, recording the time spent licking or biting the injected paw is the most common method of behavioural assessment.
Experiments were performed on male mice (Hsd Ola:ICR) from Harlan UK Ltd. (Bicester, UK). Subjects were grouped on receipt and acclimatised for a minimum of 5 days at a constant temperature (21°±1° C.) under a 12-hour light/12-hour dark cycle. Mice were tail-marked. At the end of the study all mice were euthanized with CO2 or cervical dislocation.
Following subcutaneous formalin injection into the plantar surface of the paw, animals were placed in a Perspex box on a glass plate. A piece of black cardboard was placed on top of the box. A video camera (Sony) placed beneath the glass plate was then used to record the mice for 45 min after formalin injection. Six mice were observed simultaneously. The video camera was linked to a PC and the video images captured as MPEG files using a software package (Studio MP10). The MPEG file was later transferred to CD for offline analysis. A behavioural scoring program (The Observer) was then used to measure the time the mice spent licking the injected paw. Two blocks of time were analysed: 0-5 min (Phase 1) and 20-30 min (Phase 2). These two time periods were chosen to reflect the two phases of licking that typically occur after formalin injection.
All test agents were administered via a tail vein. […] Animals were weighed immediately prior to testing and all test agents were administered in a dosing volume of 5 ml/kg. Each animal was used once only.
The ID50 values calculated in experiment 1 for the second phase licking as previously described were used for this experiment. […] The ID50 of the total dose of the mixture was then calculated from this dose-response curve.
Testing for a significant difference by t-test was not possible since confidence intervals (CIs) were not symmetric around the theoretical additive ID50.

[2] = tested on: licking of the formalin injected paw (Phase 2, 20-30 min); assay: Formalin paw test, determination of ID50 of single agents (experiment 1); format: in vivo, male mice (Hsd Ola:ICR); settings: single agent; for Effect on Phase 2 licking: i.v., increasing doses; for ID50 (μg/kg) for 2nd phase of licking (95% confidence limits): intravenously 15 min before formalin (20 μl; 3%), 20-30 min after formalin
Description: Six mice were observed simultaneously.
All test agents were administered via a tail vein. […] Each animal was used once only.
Animals (n=6 for each dose/drug) received increasing doses of morphine, ketorolac, indomethacin, the hydrochloride salt of Org 41793 (Org 43273) or vehicle administered intravenously 15 min before injection of formalin (20 μl; 3%) into the plantar surface of the left hindpaw. Data were plotted as the mean time spent licking the formalin injected paw±s.e.m for each of the two time periods (0-5 & 20-30 min) and an ID50 for the group calculated. To calculate the ID50 for the second phase of licking, the time spent licking following test drug treatment was calculated as a percentage of the time spent licking by vehicle-treated mice. An ID50 was then calculated using a non-linear regression fit, sigmoidal dose-response with constants of 0 and 100 for the bottom and top, respectively (GraphPad Prism software).

[3] = combination Org 41793 with ketorolac
[4] = combination Org 41793 with ketorolac, listed as ketorolac
[5] = combination Org 41793 with indomethacin
[6] = combination Org 41793 with indomethacin, listed as indomethacin

Structure (SMILES) | Theoretical ID50 (μg/kg) for 2nd phase of licking (95% confidence limits) [1, 3] | Theoretical ID50 (μg/kg) for 2nd phase of licking (95% confidence limits) [1, 4] [µg/kg] | Experimental ID50 (μg/kg) for 2nd phase of licking (95% confidence limits) [1, 3] | Experimental ID50 (μg/kg) for 2nd phase of licking (95% confidence limits) [1, 4] [µg/kg] | Effect on amount of morphine or Org 41793 required to elicit antinociception [1] | Effect on Phase 2 licking [2] | ID50 (μg/kg) for 2nd phase of licking (95% confidence limits) [2] | ID50 (μg/kg) for 2nd phase of licking (95% confidence limits) ([2]; listed as ketorolac) [µg/kg] | Theoretical ID50 (μg/kg) for 2nd phase of licking (95% confidence limits) [1, 5] | Theoretical ID50 (μg/kg) for 2nd phase of licking (95% confidence limits) [1, 6] [µg/kg] | Experimental ID50 (μg/kg) for 2nd phase of licking (95% confidence limits) [1, 5] | Experimental ID50 (μg/kg) for 2nd phase of licking (95% confidence limits) [1, 6] [µg/kg] | ID50 (μg/kg) for 2nd phase of licking (95% confidence limits) ([2]; listed as indomethacin) [µg/kg] | ID50 (μg/kg) for 2nd phase of licking (95% confidence limits) ([2]; listed as morphine) [µg/kg]
O=C(c1ccccc1)c1ccc2n1CCC2C(=O)O (racemic) [Ketorolac, (±)-5-benzoyl-2,3-dihydro-1H-pyrrolizine-1-carboxylic acid, 2-amino-2-(hydroxymethyl)-1,3-propanediol] | Ketorolac: 35 (20-67) μg/kg | 35 | Ketorolac: 5 (2-12) μg/kg | 5 | opioid sparing | dose-dependent inhibition | 70 (40-134) μg/kg | 70 |  |  |  |  |  | 
COc1ccc2c(c1)c(CC(=O)O)c(C)n2C(=O)c1ccc(Cl)cc1 [Indomethacin, indomethacin] |  |  |  |  | opioid sparing | dose-dependent inhibition | 340 (218-531) μg/kg |  | Indomethacin: 170 (109- μg/kg | 170 | Indomethacin: 40 (26-58) μg/kg | 40 | 340 | 
CN1CC[C@]23c4c5ccc(O)c4O[C@H]2[C@@H](O)C=C[C@H]3[C@H]1C5.O.O.O.O.O.O=S(=O)(O)O [Morphine, Morphine sulphate pentahydrate] |  |  |  |  |  | dose-dependent inhibition | 870 (496-1522) μg/kg |  |  |  |  |  |  | 870
C=CCN1C[C@H](C)N([C@@H](c2cccc(O)c2)c2cccc(C(=O)N(C)c3cccc(F)c3)c2)C[C@H]1C [Org 41793, 3-[(αR)-α-((2S,5R)-4-allyl-2,5-dimethyl-1-piperazinyl)-3-hydroxybenzyl]-N-(3-fluorophenyl)-N-methylbenzamide] |  |  |  |  |  | dose-dependent inhibition | 92 (60-140) μg/kg |  |  |  |  |  |  | 
